Test results from US8652771B2, “Measurement of succinate in urine samples as a biomarker of kidney damage in diabetic subjects” (University of Souther California, priority 2008, dated 2014).
Like-named read-outs stand apart in the source and are kept apart here.

Columns and labels:
[1] = tested on: JGA (renin-producing JG cells); assay: In vitro microperfused afferent arteriole-glomerulus (JGA) renin release, quinacrine fluorescence confocal imaging; parameters: species or system rabbit; conditions: for effect on high glucose level-induced renin release and afferent arteriole diameter increase (FIG. 1C): high glucose 25.5 mM; for renin release (change in quinacrine fluorescence intensity [F0-F] normalized to baseline [F0]): agent alone in afferent arteriole perfusate, within 30 minutes, glucose 25.5 mM, equimolar mannitol, α-ketoglutarate 5 mM, otherwise normal glucose 5.5 mM; for EC50: dose-response, FIG. 2C
Procedure: (A and B) Real-time confocal fluorescence imaging of renin content (quinacrine, light gray) and vascular diameter (cell membranes are labeled with R-18, dark gray) in the in vitro microperfused terminal afferent arteriole (AA) with attached glomerulus (G) freshly isolated from rabbit kidney. […] Scale bar: 20 μm.
(A) Overview of the TCA cycle and sites of inhibition with fluorocitrate (F: 100 μM: blocks aconitase in step 2) and malonate (MAL; 1 mM; blocks succinate dehydrogenase in step 6).
A superficial afferent arteriole with its glomerulus was microdissected from freshly harvested kidney slices. The afferent arteriole was cannulated and perfused using a method similar to those described previously (37). Briefly, dissection media were prepared from DMEM mixture F-12 (Sigma-Aldrich). Fetal bovine serum (Hyclone) was added at a final concentration of 3%. Vessel perfusion and bath fluid was a modified Krebs-Ringer-HCO3 buffer containing 115 mM NaCl, 25 mM NaHCO3, 0.96 mM NaH2PO4, 0.24 mM Na2HPO4, 5 mM KCl, 1.2 mM MgSO4, 2 mM CaCl2, 5.5 mM d-glucose and 100 μM l-arginine. The solutions were aerated with 95% O2 and 5% CO2 for 45 minutes, and their pH was adjusted to 7.4. Each preparation was transferred to a thermoregulated Lucite chamber mounted on the Leica inverted microscope. The preparation was kept in the dissection solution, and also, temperature was kept at 4° C. until cannulation of the arteriole was completed and then was gradually raised to 37° C. for the remainder of the experiment. In some experiments, the endothelium was mechanically removed from the vessel wall with the help of the perfusion pipette and by perfusing the control solution under the endothelium (between the endothelium and smooth muscle). […] The bath was continuously aerated with 95% O2 and 5% CO2. The acidotropic fluorophore quinacrine (Sigma-Aldrich), which is an intravital fluorescent dye selective for dense-core secretory granules, was used for labeling the renin granules (12, 13, 15). The membrane staining octadecyl rhodamine B chloride R18 and the nuclear stain Hoechst 33342 were used to visualize the glomerulus with its attached afferent arteriole. For ratiometric Ca2+ imaging, the fluo-4/fura red pair was used and calibrated as described before (37). DAF-FM was used to monitor changes in NO production as described (38). All fluorophores were from Invitrogen.

GENCs [2] = assay: GENC [Ca2+]i, fura-2 spectrofluorometry; type: cell-based, mouse; conditions: for GENC intracellular Ca2+ [Ca2+]i level: high glucose 25.5 mM, succinate 5 mM, malonate 1 mM, fluorocitrate 100 p.M, normal glucose baseline 133±14 nM
vascular endothelium = assay: Endothelial [Ca2+]i (fluo-4/fura red) and NO production (DAF-FM) in microperfused afferent arteriole-glomerulus; parameters: species or system mouse; conditions: glucose 5.5 to 25.5 mM or succinate 5 mM in arteriolar perfusate
Procedure: FIG. 6: GPR91 signaling in the vascular endothelium. […] Scale bar: 20 μm. […] KO (^−/−); n=6 each. […] A superficial afferent arteriole with its glomerulus was microdissected from freshly harvested kidney slices. The afferent arteriole was cannulated and perfused using a method similar to those described previously (37). Briefly, dissection media were prepared from DMEM mixture F-12 (Sigma-Aldrich). […] Vessel perfusion and bath fluid was a modified Krebs-Ringer-HCO3 buffer containing 115 mM NaCl, 25 mM NaHCO3, 0.96 mM NaH2PO4, 0.24 mM Na2HPO4, 5 mM KCl, 1.2 mM MgSO4, 2 mM CaCl2, 5.5 mM d-glucose and 100 μM l-arginine. […] Each preparation was transferred to a thermoregulated Lucite chamber mounted on the Leica inverted microscope. The preparation was kept in the dissection solution, and also, temperature was kept at 4° C. until cannulation of the arteriole was completed and then was gradually raised to 37° C. for the remainder of the experiment. In some experiments, the endothelium was mechanically removed from the vessel wall with the help of the perfusion pipette and by perfusing the control solution under the endothelium (between the endothelium and smooth muscle). […] The acidotropic fluorophore quinacrine (Sigma-Aldrich), which is an intravital fluorescent dye selective for dense-core secretory granules, was used for labeling the renin granules (12, 13, 15). […]

HEK cells = conditions: saturating doses of succinate
Text: (§1) FIG. 5: Localization of GPR91 in GENCs. […] C, control mix with no cDNA; WK, whole kidney from WT GPR91^+/+ or KO GPR91^−/− mice. […] JGC, renin-producing JG cells. (B-E) Localization of GPR91 protein in rat kidney with immunohistochemistry. […] One region of the glomerulus (indicated by a rectangle) is magnified in C and D for high-resolution colocalization studies. […] DIC background is merged with fluorescence to show glomerular morphology. (E) Negative control using no GPR91 primary antibody. Nuclei are medium gray. Scale bar: 10 μm (B-E).

VSMCs = conditions: saturating doses of succinate
Text: as §1

JG cells = conditions: saturating doses of succinate
Text: as §1

GENCs [3] = conditions: read-out: EC50, PGE2 release from GENCs; dose-response, FIG. 6D
Text: Specially engineered biosensor cells, HEK293 cells, expressing the Ca^2+-coupled PGE2 receptor EP1 were loaded with fluo-4 and positioned next to GENCs in culture. […] Normalized changes in HEK293-EP1 biosensor cell fluo-4 intensity are shown and served as an index of PGE2 release. n=6 for each dose.

[4] = L-NAME 1 mM, indomethacin 50 μM
[5] = agent combined with high glucose 25.5 mM, succinate 5 mM, malonate 1 mM, fluorocitrate 100 μM, L-NAME 1 mM, indomethacin 50 μM
[6] = succinate 5 mM, malonate 1 mM, fluorocitrate 100 μM

Structure (SMILES)	renin release (change in quinacrine fluorescence intensity normalized to baseline) [1, 5]	GENC intracellular Ca2+ [Ca2+]i level (GENCs [2]) [nM]	renin release (change in quinacrine fluorescence intensity [F0-F] normalized to baseline [F0]) [1, 6]	further results
COC(=O)[C@@H](N)CCCNC(=N)N[N+](=O)[O-] [L-NAME]	14±6 Δ%	–	–	effect on high glucose level-induced renin release and afferent arteriole diameter increase (FIG. 1C) [1, 4]: inhibited the effects of high glucose level
O=C(O)CC(O)(C(=O)O)C(F)C(=O)O (centres unmarked) [fluorocitrate]	16±2 Δ%	143 ± 11	11±2 Δ%	–
COc1ccc2c(c1)c(CC(=O)O)c(C)n2C(=O)c1ccc(Cl)cc1 [indomethacin]	13±2 Δ%	–	–	effect on high glucose level-induced renin release and afferent arteriole diameter increase (FIG. 1C) [1, 4]: inhibited the effects of high glucose level
O=C(O)CC(=O)O [malonate]	77±2 Δ%	377 ± 22	54±7 Δ%	EC50 [1]: 367 µM; renin release (change in quinacrine fluorescence intensity normalized to baseline) ([1]; malonate 1 mM plus succinate 5 mM): 83±4 Δ%
OC[C@@H](O)[C@@H](O)[C@H](O)[C@H](O)CO [mannitol]	–	–	19±4 Δ%	–
O=C(O)CCC(=O)O [succinate]	56±3 Δ%	549 ± 29	73±2 Δ%	[Ca2+]i response in GENCs with GPR91 silenced (GENCs [2]; GPR91 siRNA): no [Ca2+]i response; EC50 (GENCs [2]; succinate added to the superfusate, FIG. 5G, read-out: EC50, GENC Ca2+ signal): 69 µM; endothelial NO production (vascular endothelium): significant elevations; endothelial [Ca2+]i (vascular endothelium): significant elevations; EC50 [1]: 335 µM; [Ca2+]i elevation (HEK cells): did not cause [Ca2+]i elevations; [Ca2+]i elevation (VSMCs): did not cause [Ca2+]i elevations; [Ca2+]i elevation (JG cells): did not cause [Ca2+]i elevations; EC50 (GENCs [3]): 214 µM
O=C(O)CCC(=O)C(=O)O [α-ketoglutarate]	–	–	no effect	–
